Reference: ChEMBL document CHEMBL1201862, “PubChem BioAssay data set” (2004)
Calls of active or inactive are those of the source.

Assays:
Format in all cases: functional
[1] = molecular target: Voltage-dependent T-type calcium channel subunit alpha-1H (Homo sapiens, UniProt O95180); assay: Cav3.2 T-type channel inhibitors, cell-based, synthetic library set 1, calcium flux (AID 493022)
Hexokinase = Hexokinase (Trypanosoma brucei, UniProt Q38C41); assay: Confirmation assay for inhibitors of Trypanosoma brucei hexokinase 1-Analogue-first series. [Related pubchem assays (depositor defined):AID1430, AID1632, AID2516, AID2560, AID2579, AID2600, AID449725, AID492951]
[2] = molecular target: Delta-type opioid receptor (Homo sapiens, UniProt P41143); assay: SAR Analysis of Antagonists of the DOR Receptor using an Image-Based Assay - Set 3. [Related pubchem assays (depositor defined):AID1777, AID1785];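 further: U2OS cells expressing DOR1 and beta-arrestin GFP stimulated with 100 nM SNC80; imaging of GFP-tagged beta-arrestin moving into spots after receptor activation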
[3] = molecular target: T1, Kappa-type opioid receptor (Homo sapiens, UniProt P41145); assay: SAR analysis of small molecule antagonists of the kappa opioid receptor via a luminescent beta-arrestin assay - Set 3. [Related pubchem assays (depositor defined):AID1777, AID1778, AID1785, AID1786, AID1966, AID2133, AID2136, AID2285, AID2495]
Mu-type opioid receptor = Mu-type opioid receptor (Homo sapiens, UniProt P35372); assay: SAR Analysis of Antagonists of the MOR Receptor using an Image-Based Assay - Set 3. [Related pubchem assays (depositor defined):AID1777, AID1785, AID1786, AID1966, AID2133, AID2136, AID2284, AID2285, AID2420]
[4] = molecular target: T1, Kappa-type opioid receptor; assay: SAR analysis of Antagonists of the Kappa Opioid Receptor (KOR) using an Image-Based Assay - Set 3. [Related pubchem assays (depositor defined):AID1777, AID1785]
Coagulation factor XII = molecular target: T2, Coagulation factor XII (Homo sapiens, UniProt P00748); assay: Factor XIIa Dose Response Confirmation from Single Well HTS. [Related pubchem assays (depositor defined):AID701]
T2 sequence (P00748 whole entry): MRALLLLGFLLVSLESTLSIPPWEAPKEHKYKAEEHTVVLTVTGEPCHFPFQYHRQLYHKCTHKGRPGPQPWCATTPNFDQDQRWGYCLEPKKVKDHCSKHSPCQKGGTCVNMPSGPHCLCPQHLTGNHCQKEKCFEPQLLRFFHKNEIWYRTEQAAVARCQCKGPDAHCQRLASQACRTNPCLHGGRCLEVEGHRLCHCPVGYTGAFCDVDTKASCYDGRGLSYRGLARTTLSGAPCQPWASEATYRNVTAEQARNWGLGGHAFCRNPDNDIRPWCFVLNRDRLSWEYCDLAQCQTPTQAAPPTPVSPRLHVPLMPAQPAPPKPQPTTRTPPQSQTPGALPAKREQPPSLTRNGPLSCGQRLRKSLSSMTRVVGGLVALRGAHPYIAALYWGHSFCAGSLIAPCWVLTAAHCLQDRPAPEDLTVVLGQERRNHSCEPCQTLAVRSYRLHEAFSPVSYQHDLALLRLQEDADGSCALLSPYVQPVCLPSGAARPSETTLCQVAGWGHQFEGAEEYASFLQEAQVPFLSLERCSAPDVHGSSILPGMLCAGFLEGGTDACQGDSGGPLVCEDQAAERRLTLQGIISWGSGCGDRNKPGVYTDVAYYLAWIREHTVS

T1 sequence (P41145 whole entry): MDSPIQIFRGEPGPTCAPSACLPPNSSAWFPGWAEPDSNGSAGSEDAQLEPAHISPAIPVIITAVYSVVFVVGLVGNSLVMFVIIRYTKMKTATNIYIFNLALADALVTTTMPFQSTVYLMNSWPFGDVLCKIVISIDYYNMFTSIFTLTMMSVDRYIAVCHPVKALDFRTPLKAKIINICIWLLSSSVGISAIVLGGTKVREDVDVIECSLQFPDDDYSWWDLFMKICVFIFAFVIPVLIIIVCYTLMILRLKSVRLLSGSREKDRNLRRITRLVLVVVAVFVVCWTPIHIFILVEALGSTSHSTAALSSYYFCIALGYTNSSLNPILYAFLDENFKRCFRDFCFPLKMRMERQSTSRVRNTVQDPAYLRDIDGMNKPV
Chain of Mu-type opioid receptor (P35372 whole entry): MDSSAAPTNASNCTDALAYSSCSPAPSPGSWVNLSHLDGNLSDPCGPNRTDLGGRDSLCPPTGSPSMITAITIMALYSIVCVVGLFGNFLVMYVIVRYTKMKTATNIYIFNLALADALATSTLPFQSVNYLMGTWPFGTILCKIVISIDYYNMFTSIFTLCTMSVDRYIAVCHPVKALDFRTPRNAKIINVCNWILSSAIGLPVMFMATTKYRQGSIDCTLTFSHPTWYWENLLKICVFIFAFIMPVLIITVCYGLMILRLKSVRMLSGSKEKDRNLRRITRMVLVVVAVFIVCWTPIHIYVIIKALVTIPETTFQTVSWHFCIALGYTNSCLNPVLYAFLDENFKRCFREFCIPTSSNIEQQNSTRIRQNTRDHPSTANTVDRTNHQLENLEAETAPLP
Chain of Hexokinase (Q38C41 whole entry): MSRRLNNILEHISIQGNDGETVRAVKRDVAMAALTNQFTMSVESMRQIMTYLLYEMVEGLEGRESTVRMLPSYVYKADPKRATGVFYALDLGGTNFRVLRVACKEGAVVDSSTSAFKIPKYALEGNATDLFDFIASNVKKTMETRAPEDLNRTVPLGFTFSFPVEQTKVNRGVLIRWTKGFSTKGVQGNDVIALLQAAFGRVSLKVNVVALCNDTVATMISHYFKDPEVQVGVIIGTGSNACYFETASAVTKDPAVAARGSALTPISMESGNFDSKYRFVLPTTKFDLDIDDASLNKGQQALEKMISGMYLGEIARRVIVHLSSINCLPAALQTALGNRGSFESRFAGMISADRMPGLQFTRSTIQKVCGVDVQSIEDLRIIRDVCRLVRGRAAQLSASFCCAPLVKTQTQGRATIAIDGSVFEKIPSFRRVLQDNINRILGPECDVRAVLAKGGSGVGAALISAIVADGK
Chain of Voltage-dependent T-type calcium channel subunit alpha-1H (O95180 whole entry): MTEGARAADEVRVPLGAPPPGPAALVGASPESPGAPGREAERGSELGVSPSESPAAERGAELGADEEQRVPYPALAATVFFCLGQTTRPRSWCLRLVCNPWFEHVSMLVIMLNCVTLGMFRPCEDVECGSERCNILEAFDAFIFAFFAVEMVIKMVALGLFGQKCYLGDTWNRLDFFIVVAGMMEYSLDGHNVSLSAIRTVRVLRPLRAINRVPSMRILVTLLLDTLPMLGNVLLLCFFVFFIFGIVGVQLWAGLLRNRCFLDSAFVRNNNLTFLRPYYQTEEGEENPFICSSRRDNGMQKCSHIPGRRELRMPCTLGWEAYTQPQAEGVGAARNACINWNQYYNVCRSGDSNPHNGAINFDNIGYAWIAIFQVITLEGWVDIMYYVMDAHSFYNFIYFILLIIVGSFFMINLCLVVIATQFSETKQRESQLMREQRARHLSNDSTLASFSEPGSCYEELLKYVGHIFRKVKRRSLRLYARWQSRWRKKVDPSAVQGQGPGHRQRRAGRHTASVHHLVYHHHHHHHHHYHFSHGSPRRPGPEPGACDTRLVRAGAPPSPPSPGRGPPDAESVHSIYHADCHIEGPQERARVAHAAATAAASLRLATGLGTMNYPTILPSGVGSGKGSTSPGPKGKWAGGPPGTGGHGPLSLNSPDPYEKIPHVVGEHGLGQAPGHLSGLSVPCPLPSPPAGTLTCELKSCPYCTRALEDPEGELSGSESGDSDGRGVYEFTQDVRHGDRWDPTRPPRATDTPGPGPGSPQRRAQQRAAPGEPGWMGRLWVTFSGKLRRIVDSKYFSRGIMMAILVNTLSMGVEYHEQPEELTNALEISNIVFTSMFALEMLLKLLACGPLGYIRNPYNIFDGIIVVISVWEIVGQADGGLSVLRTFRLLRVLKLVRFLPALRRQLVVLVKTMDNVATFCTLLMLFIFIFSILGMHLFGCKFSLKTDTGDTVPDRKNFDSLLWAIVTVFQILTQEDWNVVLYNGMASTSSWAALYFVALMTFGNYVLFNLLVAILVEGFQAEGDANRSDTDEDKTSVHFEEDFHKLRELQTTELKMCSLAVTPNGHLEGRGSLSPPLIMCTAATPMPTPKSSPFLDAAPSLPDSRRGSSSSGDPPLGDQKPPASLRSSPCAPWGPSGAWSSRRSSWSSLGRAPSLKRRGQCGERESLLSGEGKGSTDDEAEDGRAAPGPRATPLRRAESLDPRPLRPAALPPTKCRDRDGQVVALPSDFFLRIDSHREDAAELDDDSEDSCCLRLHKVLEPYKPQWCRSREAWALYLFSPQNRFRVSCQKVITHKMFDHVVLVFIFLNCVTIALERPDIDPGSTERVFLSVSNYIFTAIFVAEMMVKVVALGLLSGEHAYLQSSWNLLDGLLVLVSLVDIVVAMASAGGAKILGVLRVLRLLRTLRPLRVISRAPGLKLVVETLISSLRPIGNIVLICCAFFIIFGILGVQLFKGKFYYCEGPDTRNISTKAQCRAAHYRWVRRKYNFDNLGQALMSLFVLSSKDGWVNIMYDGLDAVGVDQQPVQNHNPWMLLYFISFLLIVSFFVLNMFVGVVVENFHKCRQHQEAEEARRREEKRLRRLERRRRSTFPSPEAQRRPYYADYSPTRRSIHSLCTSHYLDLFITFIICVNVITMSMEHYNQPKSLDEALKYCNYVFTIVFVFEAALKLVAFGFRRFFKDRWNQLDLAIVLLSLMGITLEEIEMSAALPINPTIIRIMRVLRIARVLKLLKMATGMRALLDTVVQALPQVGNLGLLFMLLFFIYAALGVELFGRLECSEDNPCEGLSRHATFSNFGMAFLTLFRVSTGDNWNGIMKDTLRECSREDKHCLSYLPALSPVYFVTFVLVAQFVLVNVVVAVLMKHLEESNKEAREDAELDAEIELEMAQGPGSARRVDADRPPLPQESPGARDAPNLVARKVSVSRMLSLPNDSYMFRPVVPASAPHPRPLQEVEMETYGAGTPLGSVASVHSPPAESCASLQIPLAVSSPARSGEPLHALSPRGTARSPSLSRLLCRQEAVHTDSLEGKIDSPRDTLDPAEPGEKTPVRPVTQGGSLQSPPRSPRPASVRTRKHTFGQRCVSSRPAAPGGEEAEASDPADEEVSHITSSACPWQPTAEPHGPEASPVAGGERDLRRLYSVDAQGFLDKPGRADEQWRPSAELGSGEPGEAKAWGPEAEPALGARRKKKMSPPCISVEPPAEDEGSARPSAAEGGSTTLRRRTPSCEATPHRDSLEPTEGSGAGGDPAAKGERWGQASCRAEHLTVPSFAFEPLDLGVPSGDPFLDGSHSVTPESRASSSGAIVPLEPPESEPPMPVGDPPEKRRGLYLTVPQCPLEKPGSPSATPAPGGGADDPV
Chain of Delta-type opioid receptor (P41143 whole entry): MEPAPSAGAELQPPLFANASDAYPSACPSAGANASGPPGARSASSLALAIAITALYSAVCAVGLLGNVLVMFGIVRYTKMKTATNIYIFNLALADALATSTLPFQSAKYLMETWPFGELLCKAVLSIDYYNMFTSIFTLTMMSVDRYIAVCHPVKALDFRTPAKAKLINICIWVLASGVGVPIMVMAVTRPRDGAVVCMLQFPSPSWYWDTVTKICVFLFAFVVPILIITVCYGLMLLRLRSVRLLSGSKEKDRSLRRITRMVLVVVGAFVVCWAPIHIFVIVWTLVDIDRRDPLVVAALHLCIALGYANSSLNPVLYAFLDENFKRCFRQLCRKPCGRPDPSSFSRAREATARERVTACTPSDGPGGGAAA

For Cc1ccc(-c2nnc(NC(=O)COc3ccc(Cl)cc3)o2)cc1C, the EC50 [1] was 1.4 µM (active).

COc1ccccc1-n1sc2ccccc2c1=O was tested, and the IC50 (Hexokinase) was 7.9 µM (active).

With Cc1cccc(S(=O)(=O)NCc2ccc(C(=O)NCCN(Cc3ccccc3)Cc3ccccc3)cc2)c1 the IC50 [2] was > 32 µM (inactive), the IC50 [3] was > 20 µM (inactive) and the IC50 (Mu-type opioid receptor) was > 32 µM (inactive). The IC50 [4] was > 32 µM (inactive).

For COc1ccc(/C=c2/sc3n(c2=O)NC2(c4ccccc4)N(C)C(=O)N(C)C2(c2ccccc2)N=3)cc1 (configuration not stated), the IC50 (Coagulation factor XII) was > 50 µM (inactive).
